# What was measured:
# Type in all cases: in vivo, rat
# [1] = system: dopamine, norepinephrine and serotonin in the spinal cord, thalamus and prefrontal cortex; test: Amounts of dopamine, norepinephrine and serotonin in spinal cord, thalamus and prefrontal cortex after repeated administration of reserpine (HPLC-ECD)
# Method: Male Sprague-Dawley rats (7 weeks old, Japan SLC, Hamamatsu, Japan) were used as the animal.
# A total of 96 rats were divided into 8 test schedules (collection of samples before administration and 1, 3, 5, 7, 10, 14 or 21 days after the final administration) and further divided each of them into a vehicle (0.5% acetic acid aqueous solution) administration group, a reserpine 0.1 mg/kg administration group, a 0.3 mg/kg administration group and a 1 mg/kg administration group, to 3 rats per group. As shown in Example 1, the vehicle or 0.1, 0.3 or 1 mg/kg of reserpine was repeatedly administered to each rat once a day for 3 days, and the brain and spinal cord were quickly collected 1, 3, 5, 7, 10, 14 or 21 days after the final administration. The thalamus and prefrontal cortex were separated from the brain on an ice-cold dish.
# Regarding the sampling before administration, samples were collected before beginning of the repeated administration of vehicle or reserpine. The collected samples were quickly frozen and stored at −80° C. until their use in the measurements. On the day of the measurement, tissues of respective samples were subjected to wet weight measurement, homogenized in 0.2 M perchloric acid/0.1 mM EDTA-2Na solution using an ultrasonic homogenizer. After centrifugation at 15,000 g and at 4° C. for 15 minutes, the supernatant was adjusted to pH 3.5 using sodium acetate and filtered using a filter. Amounts of dopamine, norepinephrine and serotonin in these samples were measured using a high performance liquid chromatography (column: SC-50DS 30, 150 mm, Eicom Co., Ltd., Kyoto, Japan, mobile phase composition: 0.1 M sodium acetate buffer, 0.1 M citrate buffer, pH 3.5, 5 mg/l EDTA-2Na, 190 mg/l sodium octane sulfonic acid, 17% methanol) and an electrochemical detector (ECD-300, Eicom Co., Ltd., Kyoto, Japan). The measurement was carried out under conditions of flow rate 0.5 ml/min, applied voltage 750 mV and 25° C. Amounts of dopamine, norepinephrine and serotonin in the samples were quantified by comparing sample peak areas of respective standards measured on the same day of the sample measurement. All of the measured values were expressed as average value±standard error in the graphs, and unit of the measured values was set to ng/g tissue wet weight.
# Statistical difference of the measured values between the reserpine administration group and the vehicle administration group in each test schedule was carried out by the two-way analysis of variance and the Bonferroni method. Probability value (P) of less than 5% was judged as statistically significant (P<0.05 was expressed as * in the graphs). In addition, average values of respective groups at each point of time were expressed as percentages of the average values of corresponding vehicle administration groups.
# [2] = system: Sprague-Dawley rats; test: Muscle pressure pain threshold value after reserpine single administration; conditions: reserpine 3 mg/kg single s.c.
# Method: Male Sprague-Dawley rats (Japan SLC, Hamamatsu, Japan) were used. Measurement of muscle pressure pain threshold value was carried out in the same manner as in Example 1. That is, a pressure stimulus of gradually increasing to 250 g at the maximum was added to the right hind leg gastrocnemius muscle of each rat. […] The measurement was carried out 3 times at each point of time of the measurement, and the average was used as the measurement value.
# Influences of the reserpine single administration upon the muscle pressure pain threshold value, skin pain sensation threshold value, cold sensitivity and heat sensitivity were examined in accordance with the following protocol. […] The muscle pressure pain threshold value, skin pain sensation threshold value, cold sensitivity and heat sensitivity before the reserpine treatment (base lines) were measured and then they were divided into a solvent (0.5% acetic acid aqueous solution) group and a reserpine (3 mg/kg) group (the number of animals per group was 6). […] The muscle pressure pain threshold value, skin pain sensation threshold value, cold sensitivity and heat sensitivity of each rat were measured at the points of measurement time of acute phase after administration of the solvent or reserpine (2, 4, 8 and 24 hours) and chronic phase (2, 3, 5, 7, 10, 14 and 21 days).
# All of the measured values were expressed as average value±standard error. […]
# [3] = system: Sprague-Dawley rats; test: Skin pain sensation threshold value after reserpine single administration; conditions: reserpine 3 mg/kg single s.c.
# Method: Measurement of the skin pain sensation threshold value was carried out in the same manner as in Example 1. That is, this was measured using a series of von Frey filaments having different diameter which can add a constant pressure. […] The von Frey filament was applied using the up and down method. That is, by firstly applying a filament of about middle diameter, a filament having one rank smaller diameter was applied when the withdrawal reaction was observed or a filament having one rank larger diameter was applied when the withdrawal reaction was not observed. The skin pain sensation threshold value at each point of time was calculated as a hind paw withdrawal reaction threshold value (g).
# Influences of the reserpine single administration upon the muscle pressure pain threshold value, skin pain sensation threshold value, cold sensitivity and heat sensitivity were examined in accordance with the following protocol. A total of 12 male rats were used. The muscle pressure pain threshold value, skin pain sensation threshold value, cold sensitivity and heat sensitivity before the reserpine treatment (base lines) were measured and then they were divided into a solvent (0.5% acetic acid aqueous solution) group and a reserpine (3 mg/kg) group (the number of animals per group was 6). […] The muscle pressure pain threshold value, skin pain sensation threshold value, cold sensitivity and heat sensitivity of each rat were measured at the points of measurement time of acute phase after administration of the solvent or reserpine (2, 4, 8 and 24 hours) and chronic phase (2, 3, 5, 7, 10, 14 and 21 days).
# All of the measured values were expressed as average value±standard error. Statistical significance test of the measured values between the reserpine administration groups and the solvent administration group at each point of time was carried out by the two-way analysis of variance and the Bonferroni method. Probability value (P) of less than 5% was judged as statistically significant (P<0.05 was expressed as * in the graphs).
# [4] = reserpine 0.1 mg/kg s.c. once a day for 3 days, 1 day after final administration
# [5] = reserpine 0.3 mg/kg s.c. once a day for 3 days, 1 day after final administration
# [6] = reserpine 1 mg/kg s.c. once a day for 3 days, 1 day after final administration
# [7] = reserpine 1 mg/kg s.c. once a day for 3 days, after 21 days
smiles,measurement,setting,value
COC(=O)[C@H]1[C@H]2C[C@@H]3c4[nH]c5cc(OC)ccc5c4CCN3C[C@H]2C[C@@H](OC(=O)c2cc(OC)c(OC)c(OC)c2)[C@@H]1OC [reserpine],"amount of dopamine in the prefrontal cortex, % of the vehicle administration group",[1]; [4],49.1%
same,"amount of dopamine in the spinal cord, % of the vehicle administration group",[1]; [4],46.4%
same,"amount of dopamine in the thalamus, % of the vehicle administration group",[1]; [4],49.2%
same,"amount of norepinephrine in the prefrontal cortex, % of the vehicle administration group",[1]; [4],10.2%
same,"amount of norepinephrine in the spinal cord, % of the vehicle administration group",[1]; [4],19.1%
same,"amount of norepinephrine in the thalamus, % of the vehicle administration group",[1]; [4],43.8%
same,"amount of serotonin in the prefrontal cortex, % of the vehicle administration group",[1]; [4],42.0%
same,"amount of serotonin in the spinal cord, % of the vehicle administration group",[1]; [4],45.4%
same,"amount of serotonin in the thalamus, % of the vehicle administration group",[1]; [4],28.8%
same,"amount of dopamine in the prefrontal cortex, % of the vehicle administration group",[1]; [5],21.4%
same,"amount of dopamine in the spinal cord, % of the vehicle administration group",[1]; [5],26.3%
same,"amount of dopamine in the thalamus, % of the vehicle administration group",[1]; [5],53.2%
same,"amount of norepinephrine in the prefrontal cortex, % of the vehicle administration group",[1]; [5],0.7%
same,"amount of norepinephrine in the spinal cord, % of the vehicle administration group",[1]; [5],2.6%
same,"amount of norepinephrine in the thalamus, % of the vehicle administration group",[1]; [5],6.1%
same,"amount of serotonin in the prefrontal cortex, % of the vehicle administration group",[1]; [5],15.5%
same,"amount of serotonin in the spinal cord, % of the vehicle administration group",[1]; [5],15.7%
same,"amount of serotonin in the thalamus, % of the vehicle administration group",[1]; [5],14.8%
same,"amount of dopamine in the prefrontal cortex, % of the vehicle administration group",[1]; [6],13.4%
same,"amount of dopamine in the spinal cord, % of the vehicle administration group",[1]; [6],18.4%
same,"amount of dopamine in the thalamus, % of the vehicle administration group",[1]; [6],24.5%
same,"amount of norepinephrine in the prefrontal cortex, % of the vehicle administration group",[1]; [6],0.2%
same,"amount of norepinephrine in the spinal cord, % of the vehicle administration group",[1]; [6],0.6%
same,"amount of norepinephrine in the thalamus, % of the vehicle administration group",[1]; [6],1.2%
same,"amount of serotonin in the prefrontal cortex, % of the vehicle administration group",[1]; [6],4.6%
same,"amount of serotonin in the spinal cord, % of the vehicle administration group",[1]; [6],0.1%
same,"amount of serotonin in the thalamus, % of the vehicle administration group",[1]; [6],8.9%
same,"amount of dopamine in the prefrontal cortex, % of the vehicle administration group",[1]; [7],54.9%
same,"amount of dopamine in the spinal cord, % of the vehicle administration group",[1]; [7],70.1%
same,"amount of dopamine in the thalamus, % of the vehicle administration group",[1]; [7],66.5%
same,"amount of norepinephrine in the prefrontal cortex, % of the vehicle administration group",[1]; [7],29.1%
same,"amount of norepinephrine in the spinal cord, % of the vehicle administration group",[1]; [7],59.4%
same,"amount of norepinephrine in the thalamus, % of the vehicle administration group",[1]; [7],46.0%
same,"amount of serotonin in the prefrontal cortex, % of the vehicle administration group",[1]; [7],47.0%
same,"amount of serotonin in the spinal cord, % of the vehicle administration group",[1]; [7],67.8%
same,"amount of serotonin in the thalamus, % of the vehicle administration group",[1]; [7],60.7%
same,muscle pressure pain threshold value,"[2]; after 2, 3, 5, 7 and 10 days",significantly reduced
same,muscle pressure pain threshold value,"[2]; after 2, 4, 8 and 24 hours",significantly increased
same,time after administration at which transient acute-phase tactile allodynia recovers,[3],4 h
same,skin pain sensation threshold value,"[3]; 2, 3, 5, 7, 10, 14 and 21 days after administration",significantly reduced
same,skin pain sensation threshold value,[3]; after 2 hours,significantly reduced
